{
  "source": "paper PMC2248166",
  "about": "“Quantitative peptide binding motifs for 19 human and mouse MHC class I molecules derived using positional scanning combinatorial peptide libraries” (Immunome Research, 2008)",
  "target": "HLA B*1503 (Homo sapiens, UniProt P01889, A329T/A93T/A95T/C349S/D201E/D98Y/E187L/E204Q/K202T/N87E/Q94N/R155S/R180L/S121R/S35A/V306I/V36M/Y140S/Y91S)",
  "assay": "biochemical",
  "assay_type": "binding",
  "note": "Where a SMILES comes first, the peptide text is derived from it.",
  "data": [
    {"smiles": "CSCC[C@H](N)C(=O)N[C@@H](CCCCN)C(=O)N[C@@H](Cc1ccc(O)cc1)C(=O)N[C@@H](CS)C(=O)N[C@@H](CO)C(=O)N[C@@H](Cc1ccc(O)cc1)C(=O)N[C@@H](CCC(N)=O)C(=O)N[C@@H](CO)C(=O)N[C@@H](Cc1ccccc1)C(=O)O", "note": "[3102.1287] (H-MKYCSYQSF-OH)", "values": [
      {"measurement": "IC50", "value": 1.6, "unit": "nM"}
    ]},
    {"smiles": "CC(C)C[C@H](N)C(=O)N[C@@H](CCCCN)C(=O)N[C@H](C(=O)N[C@H](C(=O)N[C@@H](Cc1ccccc1)C(=O)N[C@H](C(=O)N[C@@H](Cc1c[nH]cn1)C(=O)N1CCC[C@H]1C(=O)N[C@@H](Cc1ccccc1)C(=O)O)C(C)C)[C@@H](C)O)[C@@H](C)O", "note": "[3102.1294] (H-LKTTFVHPF-OH)", "values": [
      {"measurement": "IC50", "value": 1.3, "unit": "nM"}
    ]},
    {"smiles": "CC[C@H](C)[C@H](NC(=O)[C@H](CO)NC(=O)[C@H](CCCNC(=N)N)NC(=O)[C@H](CCCNC(=N)N)NC(=O)[C@@H](NC(=O)[C@@H](NC(=O)[C@@H](NC(=O)[C@H](CCCCN)NC(=O)[C@@H](N)Cc1ccccc1)C(C)C)[C@@H](C)O)[C@@H](C)O)C(=O)O", "note": "[3102.1295] (H-FKVTTRRSI-OH)", "values": [
      {"measurement": "IC50", "value": 4.6, "unit": "nM"}
    ]},
    {"smiles": "CC[C@H](C)[C@H](NC(=O)[C@H](CO)NC(=O)[C@@H](NC(=O)[C@H](C)NC(=O)[C@H](CC(C)C)NC(=O)[C@H](CC(N)=O)NC(=O)[C@H](CCCCN)NC(=O)[C@@H](N)Cc1ccccc1)[C@@H](C)O)C(=O)N[C@@H](Cc1ccc(O)cc1)C(=O)O", "note": "[3102.1297] (H-FKNLATSIY-OH)", "values": [
      {"measurement": "IC50", "value": 1.6, "unit": "nM"}
    ]},
    {"smiles": "CC[C@H](C)[C@H](NC(=O)[C@H](CC(=O)O)NC(=O)[C@@H](NC(=O)[C@H](Cc1ccccc1)NC(=O)[C@@H](NC(=O)[C@H](CCCCN)NC(=O)[C@@H](N)Cc1ccc(O)cc1)C(C)C)[C@@H](C)O)C(=O)N[C@@H](CO)C(=O)N[C@@H](CCSC)C(=O)O", "note": "[3102.1298] (H-YKVFTDISM-OH)", "values": [
      {"measurement": "IC50", "value": 2.2, "unit": "nM"}
    ]},
    {"smiles": "CSCC[C@H](NC(=O)[C@H](CCCCN)NC(=O)[C@H](CS)NC(=O)[C@H](CO)NC(=O)[C@H](CO)NC(=O)[C@H](CCC(N)=O)NC(=O)[C@@H](N)CCCNC(=N)N)C(=O)N[C@@H](C)C(=O)N[C@@H](CC(C)C)C(=O)O", "note": "[3102.1299] (H-RQSSCKMAL-OH)", "values": [
      {"measurement": "IC50", "value": 19, "unit": "nM"}
    ]},
    {"smiles": "CC[C@H](C)[C@H](NC(=O)[C@H](CO)NC(=O)[C@H](CC(C)C)NC(=O)[C@@H](NC(=O)[C@H](CCCCN)NC(=O)[C@@H](N)Cc1c[nH]c2ccccc12)C(C)C)C(=O)N[C@@H](CCSC)C(=O)N[C@@H](C)C(=O)N[C@@H](Cc1ccccc1)C(=O)O", "note": "[3102.1300] (H-WKVLSIMAF-OH)", "values": [
      {"measurement": "IC50", "value": 9.3, "unit": "nM"}
    ]},
    {"smiles": "CC(C)C[C@H](N)C(=O)N[C@@H](CCCCN)C(=O)N[C@@H](CO)C(=O)N[C@@H](CC(N)=O)C(=O)N[C@@H](C)C(=O)N[C@@H](CC(=O)O)C(=O)N[C@@H](Cc1c[nH]c2ccccc12)C(=O)N[C@@H](Cc1ccccc1)C(=O)N[C@@H](Cc1ccccc1)C(=O)O", "note": "[3102.1304] (H-LKSNADWFF-OH)", "values": [
      {"measurement": "IC50", "value": 10, "unit": "nM"}
    ]},
    {"smiles": "CC[C@H](C)[C@H](N)C(=O)N[C@@H](CCSC)C(=O)N[C@H](C(=O)N[C@@H](CO)C(=O)NCC(=O)N[C@H](C(=O)N[C@H](C(=O)N1CCC[C@H]1C(=O)N[C@@H](Cc1ccccc1)C(=O)O)[C@@H](C)CC)C(C)C)[C@@H](C)O", "note": "[3102.1305] (H-IMTSGVIPF-OH)", "values": [
      {"measurement": "IC50", "value": 0.22, "unit": "nM"}
    ]},
    {"smiles": "CC(C)[C@H](NC(=O)[C@@H](NC(=O)[C@H](C)NC(=O)[C@H](Cc1ccc(O)cc1)NC(=O)[C@@H](NC(=O)[C@H](C)NC(=O)[C@@H](N)CO)[C@@H](C)O)[C@@H](C)O)C(=O)N1CCC[C@H]1C(=O)N[C@@H](Cc1ccccc1)C(=O)O", "note": "[3102.1306] (H-SATYATVPF-OH)", "values": [
      {"measurement": "IC50", "value": 12, "unit": "nM"}
    ]},
    {"smiles": "CC(C)[C@H](NC(=O)[C@H](CCC(N)=O)NC(=O)[C@H](CO)NC(=O)[C@@H](NC(=O)[C@H](CO)NC(=O)[C@@H](NC(=O)[C@H](CCC(N)=O)NC(=O)[C@@H](N)Cc1ccc(O)cc1)[C@@H](C)O)C(C)C)C(=O)N[C@@H](C)C(=O)O", "note": "[3102.1307] (H-YQTSVSQVA-OH)", "values": [
      {"measurement": "IC50", "value": 1.5, "unit": "nM"}
    ]},
    {"smiles": "CSCC[C@H](NC(=O)[C@H](CC(N)=O)NC(=O)CNC(=O)[C@H](CS)NC(=O)CNC(=O)[C@H](Cc1ccc(O)cc1)NC(=O)[C@H](CCCCN)NC(=O)[C@@H](N)CCCNC(=N)N)C(=O)N[C@@H](Cc1ccccc1)C(=O)O", "note": "[3102.1308] (H-RKYGCGNMF-OH)", "values": [
      {"measurement": "IC50", "value": 1.3, "unit": "nM"}
    ]},
    {"smiles": "CC[C@H](C)[C@H](NC(=O)[C@H](CC(N)=O)NC(=O)[C@H](CC(C)C)NC(=O)[C@H](Cc1ccccc1)NC(=O)[C@H](CC(C)C)NC(=O)[C@@H](N)Cc1ccccc1)C(=O)N[C@@H](CC(N)=O)C(=O)N[C@@H](Cc1c[nH]cn1)C(=O)N[C@@H](Cc1ccc(O)cc1)C(=O)O", "note": "[3102.1309] (H-FLFLNINHY-OH)", "values": [
      {"measurement": "IC50", "value": 6.5, "unit": "nM"}
    ]},
    {"smiles": "CC(C)C[C@H](NC(=O)[C@@H](NC(=O)[C@H](CO)NC(=O)[C@H](C)NC(=O)[C@H](Cc1ccc(O)cc1)NC(=O)[C@H](CCC(N)=O)NC(=O)[C@H](C)N)[C@@H](C)O)C(=O)N[C@@H](CO)C(=O)N[C@H](C(=O)O)C(C)C", "note": "[3102.1314] (H-AQYASTLSV-OH)", "values": [
      {"measurement": "IC50", "value": 0.16, "unit": "nM"}
    ]},
    {"smiles": "CC[C@H](C)[C@H](NC(=O)[C@H](CO)NC(=O)[C@@H]1CCCN1C(=O)[C@H](CC(C)C)NC(=O)[C@@H](NC(=O)[C@H](CCSC)NC(=O)[C@H](CCSC)NC(=O)[C@@H](N)CC(C)C)[C@@H](C)O)C(=O)N[C@@H](Cc1ccccc1)C(=O)O", "note": "[3102.1317] (H-LMMTLPSIF-OH)", "values": [
      {"measurement": "IC50", "value": 0.15, "unit": "nM"}
    ]},
    {"smiles": "CC[C@H](C)[C@H](N)C(=O)N[C@@H](CCSC)C(=O)N[C@H](C(=O)N[C@@H](CO)C(=O)N[C@@H](CCC(=O)O)C(=O)N[C@@H](Cc1c[nH]cn1)C(=O)N[C@@H](Cc1ccccc1)C(=O)N[C@@H](CO)C(=O)N[C@@H](CC(C)C)C(=O)O)C(C)C", "note": "[3102.1318] (H-IMVSEHFSL-OH)", "values": [
      {"measurement": "IC50", "value": 5.5, "unit": "nM"}
    ]},
    {"smiles": "CC(C)[C@H](NC(=O)[C@H](CC(N)=O)NC(=O)[C@@H](N)CO)C(=O)N[C@H](C(=O)N[C@@H](CS)C(=O)NCC(=O)N[C@H](C(=O)N[C@H](C(=O)N[C@@H](Cc1ccccc1)C(=O)O)[C@@H](C)O)[C@@H](C)O)C(C)C", "note": "[3102.1319] (H-SNVVCGTTF-OH)", "values": [
      {"measurement": "IC50", "value": 25, "unit": "nM"}
    ]},
    {"smiles": "CC[C@H](C)[C@H](NC(=O)[C@H](CC(N)=O)NC(=O)[C@@H](NC(=O)[C@H](C)NC(=O)[C@H](CS)NC(=O)[C@H](CCCNC(=N)N)NC(=O)[C@@H](NC(=O)[C@@H](N)CO)[C@@H](C)CC)[C@@H](C)O)C(=O)N[C@@H](Cc1ccccc1)C(=O)O", "note": "[3102.1321] (H-SIRCATNIF-OH)", "values": [
      {"measurement": "IC50", "value": 20, "unit": "nM"}
    ]},
    {"smiles": "C[C@H](NC(=O)[C@H](Cc1c[nH]c2ccccc12)NC(=O)[C@H](CO)NC(=O)CNC(=O)[C@@H](N)CCCNC(=N)N)C(=O)N[C@H](C(=O)N[C@@H](CO)C(=O)N[C@@H](CO)C(=O)N[C@@H](Cc1ccccc1)C(=O)O)[C@@H](C)O", "note": "[3102.1323] (H-RGSWATSSF-OH)", "values": [
      {"measurement": "IC50", "value": 11, "unit": "nM"}
    ]},
    {"smiles": "CC[C@H](C)[C@H](NC(=O)[C@H](Cc1ccccc1)NC(=O)[C@H](CCC(=O)O)NC(=O)[C@H](Cc1ccccc1)NC(=O)[C@H](C)NC(=O)[C@H](C)N)C(=O)N[C@@H](CC(N)=O)C(=O)N[C@@H](CO)C(=O)N[C@@H](CC(C)C)C(=O)O", "note": "[3102.1324] (H-AAFEFINSL-OH)", "values": [
      {"measurement": "IC50", "value": 4.6, "unit": "nM"}
    ]},
    {"smiles": "CC[C@H](C)[C@H](N)C(=O)N[C@@H](CCCCN)C(=O)N[C@H](C(=O)N[C@@H](CCSC)C(=O)N[C@@H](CCSC)C(=O)N[C@H](C(=O)N[C@@H](CC(N)=O)C(=O)N1CCC[C@H]1C(=O)N[C@@H](Cc1ccccc1)C(=O)O)[C@@H](C)CC)[C@@H](C)O", "note": "[3102.1325] (H-IKTMMINPF-OH)", "values": [
      {"measurement": "IC50", "value": 0.19, "unit": "nM"}
    ]},
    {"smiles": "CC[C@H](C)[C@H](N)C(=O)N[C@@H](CCC(N)=O)C(=O)N[C@@H](Cc1ccc(O)cc1)C(=O)N[C@@H](CC(=O)O)C(=O)N[C@@H](CCCNC(=N)N)C(=O)N[C@@H](CCCNC(=N)N)C(=O)N[C@@H](CO)C(=O)N[C@@H](Cc1ccccc1)C(=O)N[C@@H](Cc1ccccc1)C(=O)O", "note": "[3102.1327] (H-IQYDRRSFF-OH)", "values": [
      {"measurement": "IC50", "value": 0.15, "unit": "nM"}
    ]}
  ]
}
